Experiments:
[1] = test system: mouse liver cancer HAC cell line; experiment: Enhancement of effectiveness of CP, mouse liver cancer HAC ascites model; format: in vivo, Kunming mice; conditions: CP 50 mg/kg i.p. only (positive control)
Method: Q-can oral liquid; mouse liver cancer HAC cell line; male Kunming mice weighing 20–25 g; commercial cyclophosphamide (CP).
Forty mice were randomly divided into 5 groups. In three test groups, 36%, 60% and 100% Q-can oral liquids (diluted with water) were given, respectively, while water was given in both control groups. On the 8th day, 0.2 ml HAC cancer cell suspensions (10^7/ml) were injected into the abdominal cavities of each mouse under aseptic condition. On the 1st, 3rd and 5th days after injection. CP (50 mg/kg) was injected i.p. into the mice in all test groups and positive control group. From the 9th day after injection, normal feeding was resumed as before the test. Date of death of each mouse was recorded, and the average life span and the rate of increase in life span were calculated. The rate of increase in life span (ILS %) is defined as following: […]

Lewis mouse lung tumor = test system: Lewis mouse lung tumor
Method: Concentrated Q-can oral liquid (containing specific branched-chain fatty acids 3.6 mg/ml); Female F1 mice (C57/B1 and DBA/2) weighing 18–22 g; Lewis mouse lung tumor.
The mice of the test group were administrated with concentrated Q-can oral liquid at a daily dose of 36 mg specific branched-chain fatty acids per kg weight for 10 days before transplantation of Lewis mouse lung tumor. All the mice were transplanted subcutaneously in the subaxillary region with a piece of Lewis tumor of approximately 2 mm in diameter. The treatments of intraperitoneal injection of chemotherapy drug Cytoxan (CTX) in 30 mg/kg were given once a day after transplantation over an 8 day period for the positive control group. The treatments for the normal control group were daily injection of normal saline for 8 days. The administration of concentrated Q-can oral liquid for the test group was initiated 10 days before tumor transplantation and continued for another 8 days. Finally all the animals were sacrificed by spinal elongation. Tumors were excised and body and tumor weights were recorded.

[2] = test system: Human gastric adenocarcinoma SGC-7901 xenograft; experiment: Human gastric adenocarcinoma SGC-7901 xenografted into nude mice; format: in vivo, Balb/c-nu/nu athymia mice; conditions: MMC 2.0 mg/kg i.p. Qd × 14
Method: Female Balb/c-nu/nu athymia mice, 6 weeks old, weighing 18–22 g, housed in specific pathogen free (SPF) condition throughout the course of experiment; concentrated Q-can oral liquid contains 3.6 mg/ml specific branched-chain fatty acids; the drug used for positive control mitomycin C (MMC) was commercially available from Kyowa Hakko Kogyo Co., Ltd., Japan.
Human gastric adenocarcinoma SGC-7901 xenograft was established and maintained. For the experiment, the xenograft fragments of diameter of about 2 mm were inoculated subcutaneously into the right submaxillary regions of nude mice. The animals were randomly divided into five groups five days after inoculation. […] groups, respectively, while concentrated Q-can oral liquid was given in test groups once a day p.o., starting on the same day, at daily doses of 18, 36 and 72 mg branched-chain fatty acids per kg weight, respectively, for 14 days. Experiment was terminated 20 days post-implantation, and mice were sacrificed by spinal elongation. Tumors were removed and the weights of treated versus control tumors were compared. Inhibition rate was calculated. The experiment was repeated once.

[3] = test system: Human leukemia cell line K562; experiment: MTT assay, inhibition of cell growth; format: cell-based; conditions: Homo sapiens, K562; 30 μg/ml; 24 hours; dissolved with NaOH solution, pH 7.5; read-out: Inhibitory rate (%) on K562 cell growth
Method: MTT assay was performed to test the cytotoxicity. The K562 and SGC7901 cells were maintained in exponential growth in RPMI 1640 medium supplemented with 15% heat-inactivated newborn calf serum. The cells were plated at a density of 2×10^4 cells/100 μl medium/well into 96-well plate with medium containing samples in five final concentrations (7.5, 15, 30, 60 and 90 μg/ml) for iso-C15 (either synthesized or extracted) and one final concentration (30 μg/ml) for the others. The media in control wells contained no samples. The cells were incubated at 37° C. in a highly humidified incubator under 5% CO2 atmosphere for 24 hours. The supernatant was removed by fast inversion of the plate. 20 μl of 5 mg/ml MTT solution were added into each well. Incubation was continued for 4 hours. DMSO 100 μl/well was added and the plate was vibrated for 10 minutes. A570nm was read at the Immunoreader BioTek EL311S.
The inhibition rate (%)=1−(mean A570nm in test wells/mean A570nm in control wells)

[4] = test system: SNU-423 human hepatocellular carcinoma cells; experiment: Apoptosis morphology, light microscope; format: cell-based; conditions: 60 μg/ml, 24 hours
Method: (§1) Human cancer cell lines DU-145 (prostate cancer), K562 (leukemia), HCT116 (colon cancer), H1688 (lung cancer), SUN423 (hepatocarcinoma), MCF7 (breast cancer), CRL-1687 (pancreatic cancer), and SUN-1 (gastric cancer) were obtained from American Type Culture Collection (ATCC). 30 ml blood was collected from a health person and normal peripheral mononuclear cells were separated by Ficoll separation solution (Sigma). All cells were maintained in RPMI 1640, DMEM, or McCoy medium supplemented with 10% FCS, […] streptomycin and 100 u/ml penicillin. Normal human peripheral mononuclear cells, K562 and SUN-1 were suspended cells. After spinning at 1,500 RPM for 5 min, supernatants were discharged and cells were resuspended and expended in fresh medium. The other tumor cell lines were adherent cells and were dispersed with 0.05% trypsin/0.01% EDTA (Irvine Scientific, CA) for expansion. Cells were seeded in T75 flasks at 2×10^6 cells/flask in culture medium supplemented with 10% fetal bovine serum and incubated overnight at 37° C. with 5% CO2. […] Cells were then prepared for flow cytometry analysis, in situ cell death detection, DNA fragmentation and Western blot assay followed the preparation methods for each assay. Cell pellets treated for 2 and 4 hr with either iso-C15 or control were also stored at −70° C. for future studies of gene regulation. […]

[5] = test system: SNU-1 human gastric carcinoma cell lines; experiment: Apoptosis morphology, H&E, light microscope; format: cell-based; conditions: 60 μg/ml, 8 hours
Method: as §1

[6] = test system: MCF-7 human breast adenocarcinoma cells; experiment: Flow cytometry annexin V / PI apoptosis detection; format: cell-based; conditions: 60 μg/ml
Method: Human cancer cell lines DU-145 (prostate cancer), K562 (leukemia), HCT116 (colon cancer), H1688 (lung cancer), SUN423 (hepatocarcinoma), MCF7 (breast cancer), CRL-1687 (pancreatic cancer), and SUN-1 (gastric cancer) were obtained from American Type Culture Collection (ATCC). 30 ml blood was collected from a health person and normal peripheral mononuclear cells were separated by Ficoll separation solution (Sigma). All cells were maintained in RPMI 1640, DMEM, or McCoy medium supplemented with 10% FCS, […] streptomycin and 100 u/ml penicillin. Normal human peripheral mononuclear cells, K562 and SUN-1 were suspended cells. After spinning at 1,500 RPM for 5 min, supernatants were discharged and cells were resuspended and expended in fresh medium. The other tumor cell lines were adherent cells and were dispersed with 0.05% trypsin/0.01% EDTA (Irvine Scientific, CA) for expansion. Cells were seeded in T75 flasks at 2×10^6 cells/flask in culture medium supplemented with 10% fetal bovine serum and incubated overnight at 37° C. with 5% CO2. The adherent cells attached to the plate were striped with disposable cell scrapers (Fisher Scientific) after treated either with 1% iso-C15, anteiso-C15 or control solution for 1, 2, 4, 8 and 24 hours and then combined with respective float cells. Cells were then prepared for flow cytometry analysis, in situ cell death detection, DNA fragmentation and Western blot assay followed the preparation methods for each assay. Cell pellets treated for 2 and 4 hr with either iso-C15 or control were also stored at −70° C. for future studies of gene regulation.
A flow cytometer (FACScan) with Consort 30 software for gating analysis (Becton Dickinson, San Jose, Calif.) was used. The Apoptosis Detection kit (R&D Systems) was used to quantitatively determine the percentage of cells undergoing apoptosis by virtue of their ability to bind annexin V and exclude propidium iodide (PI). Cells were washed in cold PBS twice and resuspended in binding buffer. Fluorescent-labeled annexin V and PI were added to the cells. The cells undergoing apoptosis, expressing phosphotidyiserine on the outer leaflet of cell membranes, would bind annexin V. The cells in later stage of apoptosis or necrosis, with a compromised cell membrane, would allow PI to bind to the cellular DNA. The resulting cells were immediately analyzed by flow cytometer equipped with a single laser emitting excitation light at 488 nm. The annexin V and PI generated signals can be detected in signal detector FL1 and FL2, respectively. […]

[7] = CTX 30 mg/kg i.p. once a day, 8 days

Q: For `O=P1(N(CCCl)CCCl)NCCCO1` (stereo not drawn) [CP, cyclophosphamide], which “ILS % (rate of increase in life span)” value [1] is on record?
A: Its value is 22.86%.

Q: And the life span [1]?
A: The life span was 13.06 ± 3.03 days.

Q: What about the “mice No (>17 d)” value [1] of the same compound?
A: The value was 1.

Q: What about the prolonged days [1] of the same compound?
A: Its prolonged days is 2.44 ± 2.58 days.

Q: Which results are given for `O=P1(N(CCCl)CCCl)NCCCO1` (stereo not drawn) [CTX, Cytoxan]?
A: body weight in. (initial) (Lewis mouse lung tumor; CTX 30 mg/kg i.p.): 21.2 g; TIR (Lewis mouse lung tumor; [7]): 62.6%; body weight fi. (final) (Lewis mouse lung tumor; [7]): 20.3 g; tumor weight mean ± SD (Lewis mouse lung tumor; [7]): 0.71 ± 0.36 g; viability (Lewis mouse lung tumor; CTX i.p. injection, 8-day period): 70%

Q: Which “Body wt. Fi.” value ([2]; Test I) does the source give for `CO[C@@]12[C@H](COC(N)=O)C3=C(C(=O)C(C)=C(N)C3=O)N1C[C@@H]1N[C@@H]12` [MMC, mitomycin C] here?
A: Its value is 22.0.

Q: And the “Body wt. In.” value ([2]; Test I)?
A: The value was 22.4.

Q: And the Inhibition % ([2]; Test I)?
A: Its Inhibition % is 71.49%.

Q: And the “Tumor wt. X ± SD” value ([2]; Test I)?
A: Its value is 0.33 ± 0.24 g.

Q: And the “Body wt. Fi.” value ([2]; Test II)?
A: The value was 21.1/21.1.

Q: What about the “Body wt. In.” value ([2]; Test II) of the same compound?
A: Its value is 21.1/21.1.

Q: And the Inhibition % ([2]; Test II)?
A: The Inhibition % was 73.51%.

Q: What about the “Tumor wt. X ± SD” value ([2]; Test II) of the same compound?
A: The value was 0.30 ± 0.33 g.

Q: `CCC(C)CCCCCCCCCC(=O)O` (stereo not drawn) [anteiso-C14, 11-methyltridecanoic acid] was tested. Which inhibition at 30 µg/mL [3] did it give?
A: Its inhibition at 30 µg/mL is 72.6%.

Q: With `CCC(C)CCCCCCCCCCC(=O)O` (stereo not drawn) [anteiso-C15, 12-methyltetradecanoic acid] as the compound, how does the inhibition at 30 µg/mL [3] read?
A: The inhibition at 30 µg/mL was 73.1%.

Q: What about the “morphological changes indicative of apoptosis” value [4] of the same compound?
A: The value was “exhibited cell volume decrease due to shrinkage and bubbles inside the cell”.

Q: What about the “morphological changes indicative of apoptosis” value [5] of the same compound?
A: The value was “chromatin condensation and cytoplasmic granularity were noted”.

Q: And the “FL1/FL2 pattern (annexin V / PI), apoptosis” value ([6]; 4 hours)?
A: The value was “many cells were undergoing apoptosis”.

Q: What about the “FL1/FL2 pattern (annexin V / PI), apoptosis” value ([6]; 24 hours) of the same compound?
A: Its value is “the majority of cells had already died”.

Q: `CCC(C)CCCCCCCCCCCC(=O)O` (stereo not drawn) [anteiso-C16, 13-methylpentadecanoic acid] was tested. Which inhibition at 30 µg/mL [3] did it give?
A: Its inhibition at 30 µg/mL is 70.7%.

Q: `CCC(C)CCCCCCCCCCCCCC(=O)O` (stereo not drawn) [anteiso-C18, 15-methylheptadecanoic acid] was tested. Which inhibition at 30 µg/mL [3] did it give?
A: Its inhibition at 30 µg/mL is 71.7%.

Q: Which inhibition at 30 µg/mL [3] does the source give for `CC(C)CCCCCCCCC(=O)O` [iso-C12, 10-methylundecanoic acid] here?
A: Its inhibition at 30 µg/mL is 70.7%.

Q: Which inhibition at 30 µg/mL [3] does the source give for `CC(C)CCCCCCCCCC(=O)O` [iso-C13, 11-methyllauric acid] here?
A: Its inhibition at 30 µg/mL is 71%.

Q: For `CC(C)CCCCCCCCCCC(=O)O` [iso-C14, 12-methyltridecanoic acid], which inhibition at 30 µg/mL [3] is on record?
A: The inhibition at 30 µg/mL was 72.2%.

Q: Which inhibition at 30 µg/mL [3] does the source give for `CC(C)CCCCCCCCCCCCC(=O)O` [iso-C16, 14-methylpentadecanoic acid] here?
A: Its inhibition at 30 µg/mL is 71.6%.

Q: `CC(C)CCCCCCCCCCCCCC(=O)O` [iso-C17, 15-methylpalmitic acid] was tested. Which inhibition at 30 µg/mL [3] did it give?
A: Its inhibition at 30 µg/mL is 70.8%.

Q: With `CC(C)CCCCCCCCCCCCCCC(=O)O` [iso-C18, 16-methylheptadecanoic acid] as the compound, how does the inhibition at 30 µg/mL [3] read?
A: The inhibition at 30 µg/mL was 68.4%.

Q: With `CC(C)CCCCCCCCCCCCCCCC(=O)O` [iso-C19, 17-methylstearic acid] as the compound, how does the inhibition at 30 µg/mL [3] read?
A: Its inhibition at 30 µg/mL is 69.2%.

Q: `CC(C)CCCCCCCCCCCCCCCCC(=O)O` [iso-C20, 18-methylnonadecanoic acid] was tested. Which inhibition at 30 µg/mL [3] did it give?
A: Its inhibition at 30 µg/mL is 62.6%.
